Data reported in BigSolDB 2.1.

COC(=O)Nc1nc2ccc(C(=O)c3ccc(F)cc3)cc2[nH]1
Conditions | solubility (mole fraction)
in 1,4-dioxane, 288.15 K | 8.29e-05
in 1,4-dioxane, 293.15 K | 9.83e-05
in 1,4-dioxane, 298.15 K | 0.00012
in 1,4-dioxane, 303.15 K | 0.00014
in 1,4-dioxane, 308.15 K | 0.000168
in 1,4-dioxane, 313.15 K | 0.000195
in 1,4-dioxane, 318.15 K | 0.000229
in 1,4-dioxane, 323.15 K | 0.000266
in 1,4-dioxane, 328.15 K | 0.000308
in 1,4-dioxane, 333.15 K | 0.000357
in 2-butanone, 283.15 K | 0.000232
in 2-butanone, 288.15 K | 0.000305
in 2-butanone, 293.15 K | 0.000401
in 2-butanone, 298.15 K | 0.000516
in 2-butanone, 303.15 K | 0.000682
in 2-butanone, 308.15 K | 0.000837
in 2-butanone, 313.15 K | 0.00104
in 2-butanone, 318.15 K | 0.00132
in 2-butanone, 323.15 K | 0.0017
in 2-butanone, 328.15 K | 0.00204
in 2-butanone, 333.15 K | 0.00248
in DMF, 283.15 K | 0.000572
in DMF, 288.15 K | 0.000708
in DMF, 293.15 K | 0.000821
in DMF, 298.15 K | 0.00098
in DMF, 303.15 K | 0.00116
in DMF, 308.15 K | 0.00138
in DMF, 313.15 K | 0.00162
in DMF, 318.15 K | 0.00188
in DMF, 323.15 K | 0.0022
in DMF, 328.15 K | 0.00259
in DMF, 333.15 K | 0.00309
in DMSO, 293.15 K | 0.00191
in DMSO, 298.15 K | 0.00221
in DMSO, 303.15 K | 0.00261
in DMSO, 308.15 K | 0.00303
in DMSO, 313.15 K | 0.00358
in DMSO, 318.15 K | 0.00419
in DMSO, 323.15 K | 0.00481
in DMSO, 328.15 K | 0.00548
in DMSO, 333.15 K | 0.00627
in NMP, 283.15 K | 0.00078
in NMP, 288.15 K | 0.000918
in NMP, 293.15 K | 0.00103
in NMP, 298.15 K | 0.00122
in NMP, 303.15 K | 0.00142
in NMP, 308.15 K | 0.00162
in NMP, 313.15 K | 0.00188
in NMP, 318.15 K | 0.00215
in NMP, 323.15 K | 0.00252
in NMP, 328.15 K | 0.00308
in NMP, 333.15 K | 0.00373
in ethanol, 283.15 K | 1.03e-06
in ethanol, 288.15 K | 1.56e-06
in ethanol, 293.15 K | 2.41e-06
in ethanol, 298.15 K | 3.74e-06
in ethanol, 303.15 K | 5.44e-06
in ethanol, 308.15 K | 7.73e-06
in ethanol, 313.15 K | 1.01e-05
in ethanol, 318.15 K | 1.41e-05
in ethanol, 323.15 K | 1.94e-05
in ethanol, 328.15 K | 2.55e-05
in ethanol, 333.15 K | 3.33e-05
in isobutanol, 283.15 K | 1.2e-05
in isobutanol, 288.15 K | 1.62e-05
in isobutanol, 293.15 K | 2.13e-05
in isobutanol, 298.15 K | 2.73e-05
in isobutanol, 303.15 K | 3.55e-05
in isobutanol, 308.15 K | 4.61e-05
in isobutanol, 313.15 K | 5.88e-05
in isobutanol, 318.15 K | 7.44e-05
in isobutanol, 323.15 K | 9.39e-05
in isobutanol, 328.15 K | 0.000116
in isobutanol, 333.15 K | 0.000135
in isopropanol, 283.15 K | 6.58e-06
in isopropanol, 288.15 K | 7.97e-06
in isopropanol, 293.15 K | 9.58e-06
in isopropanol, 298.15 K | 1.14e-05
in isopropanol, 303.15 K | 1.34e-05
in isopropanol, 308.15 K | 1.63e-05
in isopropanol, 313.15 K | 1.93e-05
in isopropanol, 318.15 K | 2.22e-05
in isopropanol, 323.15 K | 2.65e-05
in isopropanol, 328.15 K | 3.12e-05
in isopropanol, 333.15 K | 3.56e-05
in methanol, 283.15 K | 7.08e-07
in methanol, 288.15 K | 1.05e-06
in methanol, 293.15 K | 1.57e-06
in methanol, 298.15 K | 2.25e-06
in methanol, 303.15 K | 3.15e-06
in methanol, 308.15 K | 4.41e-06
in methanol, 313.15 K | 6.31e-06
in methanol, 318.15 K | 8.49e-06
in methanol, 323.15 K | 1.17e-05
in methanol, 328.15 K | 1.59e-05
in methanol, 333.15 K | 2.14e-05
in n-butanol, 283.15 K | 1.93e-05
in n-butanol, 288.15 K | 2.58e-05
in n-butanol, 293.15 K | 3.46e-05
in n-butanol, 298.15 K | 4.36e-05
in n-butanol, 303.15 K | 5.64e-05
in n-butanol, 308.15 K | 7.1e-05
in n-butanol, 313.15 K | 8.77e-05
in n-butanol, 318.15 K | 0.000111
in n-butanol, 323.15 K | 0.000141
in n-butanol, 328.15 K | 0.000173
in n-butanol, 333.15 K | 0.000218
in n-propanol, 283.15 K | 7.7e-06
in n-propanol, 288.15 K | 1e-05
in n-propanol, 293.15 K | 1.32e-05
in n-propanol, 298.15 K | 1.69e-05
in n-propanol, 303.15 K | 2.16e-05
in n-propanol, 308.15 K | 2.64e-05
in n-propanol, 313.15 K | 3.39e-05
in n-propanol, 318.15 K | 4.31e-05
in n-propanol, 323.15 K | 5.53e-05
in n-propanol, 328.15 K | 6.78e-05
in n-propanol, 333.15 K | 8.09e-05
in water, 283.15 K | 1.03e-07
in water, 288.15 K | 1.31e-07
in water, 293.15 K | 1.67e-07
in water, 298.15 K | 2.12e-07
in water, 303.15 K | 2.6e-07
in water, 308.15 K | 3.23e-07
in water, 313.15 K | 4e-07
in water, 318.15 K | 4.96e-07
in water, 323.15 K | 6.07e-07
in water, 328.15 K | 7.33e-07
in water, 333.15 K | 8.81e-07
